Laboratory results as given in ChEMBL document CHEMBL1126398, “(5S)-3-aryl-5-(1-piperidinylmethyl)-2-oxazolidinones, a new class of potential neuroleptics with a high affinity for sigma receptors” (Bioorg Med Chem Lett, 1992).

Target: D(2) dopamine receptor (Rattus norvegicus, UniProt P61169)
Test: Binding affinity against the Dopamine receptor D2 in rat striatum by using [3H]spiperone radioligand
Type: tissue-based

D(2) dopamine receptor, sequence (P61169 whole entry): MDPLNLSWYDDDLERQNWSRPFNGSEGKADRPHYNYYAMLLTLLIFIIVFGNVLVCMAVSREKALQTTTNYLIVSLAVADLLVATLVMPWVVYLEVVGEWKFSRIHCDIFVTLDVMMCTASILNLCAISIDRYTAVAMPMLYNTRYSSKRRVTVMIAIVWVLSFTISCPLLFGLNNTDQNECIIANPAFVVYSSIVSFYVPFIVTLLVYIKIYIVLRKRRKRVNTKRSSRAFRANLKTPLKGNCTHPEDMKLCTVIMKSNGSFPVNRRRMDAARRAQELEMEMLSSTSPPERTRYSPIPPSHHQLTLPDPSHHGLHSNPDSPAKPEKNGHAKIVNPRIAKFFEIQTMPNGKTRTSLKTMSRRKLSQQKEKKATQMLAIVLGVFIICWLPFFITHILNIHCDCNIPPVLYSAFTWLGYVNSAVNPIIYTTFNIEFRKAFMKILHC

Molecule `OC(CCCN1CCN(c2ncc(F)cn2)CC1)c1ccc(F)cc1` (stereo unspecified) [BMY-14802] has an IC50 of 4.9 µM.
